Like-named read-outs stand apart in the source and are kept apart here.
Legend:
[1] = target: T1, ERK3 kinase domain (Homo sapiens, UniProt Q16659); test: Melting temperature assay (differential scanning fluorimetry, DSF); type: binding; conditions: for ΔTm (melting temperature shift): DSF screen of 1454 kinase inhibitors
T1 construct: The kinase domain of ERK3 (M9-I327) was subcloned into pNIC28–Bsa4; His6 (N, cleaved yes); made in house; host or cells: E. coli (co-expressed with lambda phosphatase)
Description: The ERK3 kinase domain at 2 µM in 10 mM HEPES pH 7.5 and 500 mM NaCl was mixed with 10 µM inhibitors and SyPRO Orange at 1:1000 dilution. After 10 min incubation at room temperature, the fluorescence signal, which increases upon the temperature-dependent unfolding of ERK3 protein, was measured using Mx3005p real-time PCR machine (Stratagene, San Diego, CA, USA). The ∆Tm shifts were calculated using protocol described previously.

[2] = target: T2, Full length ERK3 (NanoLuc fusion) (Homo sapiens, UniProt Q16659); test: Cell-based NanoBRET assay (tracer displacement) in HEK293T cells; conditions: for remaining activity at 5 µM / remaining activity at 10 µM: HEK-293T, 2 h, Table S3, ratio to DMSO control; for remaining activity at 5 µM: single dose 5 µM, read-out: Norm.BRET 5 µM; for remaining activity at 10 µM: single dose 10 µM, read-out: Norm.BRET 10 µM; for IC50: Figure 2F, HEK293T cells, 0.25 µM Tracer K5, 2 h, averaged over two replicates
T2 construct: Full length ERK3 was cloned into pFC32K (Promega, Madison, WI, USA); expressed in transfected cells; host or cells: HEK293T
Description: Full length ERK3 was cloned into pFC32K (Promega, Madison, WI, USA) for the expression of an […] NanoLuc fusion, and the plasmid was transfected into HEK293T cells cultured in DMEM (Gibco) supplemented with 10% fetal bovine serum (Gibco) and penicillin/streptamycin (Gibco, Thermo Fisher Scientific, Waltham, MA, USA). NanoBRET assays were performed using protocol published previously. Briefly, after transfection and 20 h incubation, cells were harvested and subsequently resuspended in OptiMEM (Gibco). […] BRET luminescence (450 nm for donor emission and 610 nm for BRET signal) was measured using PHERAstar FSX plate reader (BMG Labtech, Ortenberg, Germany). Milli-BRET units (mBU) were calculated as a ratio between the BRET signal and the overall measured luminescence. A dose–response fitting was applied, and the corresponding IC50 values were calculated in Prism software. For the single concentration screening, the normalized BRET values were calculated from the ratio between the BRET signals of the tested inhibitor and that of the DMSO control.

[3] = target: T1, ERK3 kinase domain; test: Mass spectrometry analyses of covalent adducts (intact mass, chymotrypsin digestion); type: binding; conditions: kinase and inhibitor at 1:1 ratio, 30 min, room temperature
Description: The protein was purified using C8 stage tips, and the intact mass was analysed using LC-ESI TOF (Agilient, Santa Clara, CA, USA) and Bioconfirm software (Agilient). Chymotrypsin digestion followed by mass spectrometry analysis was performed to identify the residue that forms a covalent bond with the inhibitors. […] The protein was subsequently precipitated by 50% […], and the resulting pellet was washed twice with cold acetone. Chymotrypsin (Sigma Aldrich) digestion was performed in 50 mM (NH4)2CO3 overnight at 37 °C. The solution after proteolysis were spotted in quadruplets onto the 4-chloro-α-cyanocinnamic acid matrix (Sigma Aldrich; 3 mg mL^−1 in TFA-acidified 50% acetonitrile), and the m/z ratios were analysed on a Thermo Fisher MALDI-LTQ Orbitrap XL spectrometer.

[4] = target: T1, ERK3 kinase domain; test: Isothermal titration calorimetry (ITC); type: binding; conditions: for Kd: Figure 2E, 15 °C, averaged over two replicates, read-out: ITC dissociation constant Kd
Description: The integrated heat of titration was calculated and fitted into an independent binding model using NanoAnalyzer software. Thermodynamic parameters, the dissociation constant (Kd), and stoichiometry (n) were an average over duplicates.

[5] = Table S3, DSF assay values shown for comparison, read-out: ΔTm ERK3
[6] = Table S2, 10 µM inhibitors, read-out: ΔTm Initial Screen
[7] = Table S2, average of two repeats ± standard deviation, read-out: ΔTm Follow Up

T1 sequence (Q16659 9-327): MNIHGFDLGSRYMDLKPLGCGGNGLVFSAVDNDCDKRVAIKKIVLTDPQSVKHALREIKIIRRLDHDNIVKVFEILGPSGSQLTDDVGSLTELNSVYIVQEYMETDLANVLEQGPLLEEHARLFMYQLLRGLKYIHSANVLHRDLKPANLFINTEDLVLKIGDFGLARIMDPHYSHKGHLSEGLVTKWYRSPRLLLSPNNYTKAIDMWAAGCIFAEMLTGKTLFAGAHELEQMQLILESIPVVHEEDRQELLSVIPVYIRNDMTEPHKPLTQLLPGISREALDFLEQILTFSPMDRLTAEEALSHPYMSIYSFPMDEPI
T2 sequence (Q16659 whole entry, the tested form may be a part): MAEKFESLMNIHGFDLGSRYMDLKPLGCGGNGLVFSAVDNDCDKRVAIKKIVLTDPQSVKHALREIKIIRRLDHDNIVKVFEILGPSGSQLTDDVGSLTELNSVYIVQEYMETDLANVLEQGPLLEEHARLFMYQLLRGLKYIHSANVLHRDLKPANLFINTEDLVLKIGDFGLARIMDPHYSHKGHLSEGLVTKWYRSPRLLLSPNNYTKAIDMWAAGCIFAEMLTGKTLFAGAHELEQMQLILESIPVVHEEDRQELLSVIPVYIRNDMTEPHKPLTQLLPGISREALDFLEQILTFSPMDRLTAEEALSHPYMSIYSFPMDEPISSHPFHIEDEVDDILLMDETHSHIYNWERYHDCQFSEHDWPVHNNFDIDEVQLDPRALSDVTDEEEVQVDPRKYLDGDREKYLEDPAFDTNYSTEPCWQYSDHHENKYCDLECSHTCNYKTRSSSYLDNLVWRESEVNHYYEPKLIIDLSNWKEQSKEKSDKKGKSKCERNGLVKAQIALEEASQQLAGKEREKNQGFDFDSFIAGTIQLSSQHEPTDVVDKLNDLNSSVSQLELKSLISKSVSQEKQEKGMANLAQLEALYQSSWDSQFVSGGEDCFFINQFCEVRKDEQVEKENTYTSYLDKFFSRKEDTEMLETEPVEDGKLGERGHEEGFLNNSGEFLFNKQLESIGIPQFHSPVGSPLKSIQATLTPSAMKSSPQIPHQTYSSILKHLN

Row | SMILES | ΔTm at 10 µM [1, 5] | remaining activity at 5 µM ([2]; HEK293T) | remaining activity at 10 µM ([2]; HEK293T) | ΔTm at 10 µM [1, 6] | ΔTm at 10 µM [1, 7] | other results
1 | O=C1Nc2ccc(I)cc2C1=Cc1cc(Br)c(O)c(Br)c1 [GW5074] |  |  |  |  |  | ΔTm at 10 µM ([1]; read-out: ΔTm Initial Screen): 1.36 °C
2 | C=CC(=O)Nc1cccc(Nc2nc(Nc3ccc(Oc4ccnc(C(=O)NC)c4)cc3)ncc2F)c1 [CNX-774] |  |  |  | 1.04 °C |  | 
3 | CN(C)C/C=C/C(=O)Nc1cccc(C(=O)Nc2ccc(Nc3nccc(-c4cccnc4)n3)cc2)c1 [JNK-IN-7] |  |  |  |  |  | IC50 [2]: 0.112 ± 0.023 µM; covalent adduct formation (intact mass shift) [3]: covalent formation, albeit only partially
4 | CC(C)(C)c1cc(NC(=O)Nc2ccc(-c3cn4c(n3)sc3cc(OCCN5CCOCC5)ccc34)cc2)no1 [Quizartinib] |  |  |  |  |  | ΔTm Initial Screen ([1]; Table S2, 10 µM inhibitors): 1.12 °C
5 | COc1cccc(-n2ncc3c(N/N=C/c4ccc(C(=O)NCCN(C)C)cc4)ncnc32)c1 [GW784307A] |  |  |  |  |  | ΔTm at 10 µM ([1]; read-out: ΔTm Initial Screen): 1.3 °C
6 | O=C(Nc1ccc(Nc2nccc(Nc3cc(C4CCCC4)[nH]n3)n2)cc1)Nc1cccc(C(F)(F)F)c1 [CD532] |  |  |  | 1.7 °C | 1 ± 0.1 °C | 
7 | O=C(Nc1cccc(Nc2ncc(Br)c(NCCc3cnc[nH]3)n2)c1)N1CCCC1 [BX-912] | -0.12 °C | 74.1 ± 1.5% | 53.2 ± 1.7% |  |  | 
8 | Cc1ncc(-c2ccnc(Nc3ccc(S(C)(=O)=O)cc3)n2)n1C(C)C [AZD5438] | -0.17 °C | 93.3 ± 4% | 61.7 ± 2.2% |  |  | 
9 | O=C(Nc1c[nH]nc1-c1nc2ccc(CN3CCOCC3)cc2[nH]1)NC1CC1 [AT9283] |  | 16.1 ± 3.9% | 10.6 ± 1.5% | 3.08 °C | 3.1 ± 0.1 °C | ΔTm (melting temperature shift) [1]: 3.1–3.8 °C; IC50 [2]: 0.015 ± 0.007 µM; ITC dissociation constant (Kd), in words [4]: low nanomolar affinities; Kd [4]: 0.08 ± 0.005 µM
10 | CCN1CCN(Cc2ccc(-c3cc4c(N[C@H](C)c5ccccc5)ncnc4[nH]3)cc2)CC1 [AEE788] | 0.4 ± 0.3 °C | 40 ± 1.6% | 38.8 ± 3.1% |  |  | IC50 [2]: 0.145 ± 0.045 µM
11 | Cc1nc(N)sc1-c1ccnc(Nc2ccc(N3CCOCC3)cc2)n1 [CYC116] | 0.26 °C | 64.9 ± 3.8% | 52.9 ± 2.8% |  |  | 
12 | CN1CCN(c2ccc(Nc3nccc(-c4cnn5ncccc45)n3)cc2C#N)CC1 [CAF078] |  |  |  | 3.83 °C | 3.3 ± 0.2 °C | ΔTm (melting temperature shift) [1]: 3.1–3.8 °C; IC50 [2]: 0.009 ± 0.001 µM; ITC dissociation constant (Kd), in words [4]: low nanomolar affinities; Kd [4]: 0.044 ± 0.026 µM
13 | O=C(NC(NC(=S)Nc1ccc(F)c([N+](=O)[O-])c1)C(Cl)(Cl)Cl)C(c1ccccc1)c1ccccc1 (stereo not shown) [CGK733] |  |  |  | 1.17 °C |  | 
14 | O=C(Nc1cc(C(F)(F)F)cc(C(F)(F)F)c1)c1cc(Cl)ccc1O [IMD0354] |  |  |  |  |  | ΔTm at 10 µM ([1]; read-out: ΔTm Initial Screen): 1.21 °C
15 | Cc1cc(Nc2cc(N3CCN(C)CC3)nc(/C=C/c3ccccc3)n2)n[nH]1 [ENMD-2076] | -0.15 °C | 90.8 ± 3% | 58.5 ± 0.4% |  |  | 
16 | CN1CCN(c2ccc(Nc3nccc(-c4cnn5ncccc45)n3)cc2)CC1 [CAF045] |  |  |  |  |  | ΔTm at 10 µM ([1]; read-out: ΔTm Follow Up): 1.4 ± 0.5 °C; ΔTm at 10 µM ([1]; read-out: ΔTm Initial Screen): 1.61 °C
17 | COc1cc2ncnc(Nc3cccc(Cl)c3)c2cc1OC [AG-1478] | 0.06 °C | 73.5 ± 1.1% | 41.7% |  |  | 
18 | CC(C)CCN1c2nc(Nc3cc(F)c(O)c(F)c3)ncc2N(C)C(=O)C1C (stereo not shown) [BI-D1870] | 0.02 °C | 80.6 ± 6.7% | 49.4 ± 1.1% |  |  | 
19 | C=CC(=O)Nc1cc2c(Nc3ccc(F)c(Cl)c3)ncnc2cc1OCCCN1CCOCC1 [Canertinib] |  |  |  | 2.05 °C | 3.1 ± 0.3 °C | 
20 | CN1CCN(c2ccc(Nc3nccc(-c4cnn5ncccc45)n3)cc2F)CC1 [CAF052] |  |  |  | 2.81 °C | 2.5 ± 0.3 °C | IC50 [2]: 0.02 ± 0.013 µM
21 | CNC(=O)c1cc(Oc2ccc(NC(=O)Nc3ccc(Cl)c(C(F)(F)F)c3)cc2)ccn1 [Sorafenib] |  |  |  |  |  | ΔTm at 10 µM ([1]; read-out: ΔTm Follow Up): 0 °C; ΔTm at 10 µM ([1]; read-out: ΔTm Initial Screen): 1.2 °C
22 | O=C(/C=C/c1ccc(O)c(O)c1)c1ccc(O)cc1O [Butein] |  |  |  | 1.15 °C |  | 

Continued, in another order:

Row | ΔTm at 10 µM [1, 5] | remaining activity at 5 µM ([2]; HEK293T) | remaining activity at 10 µM ([2]; HEK293T) | ΔTm at 10 µM [1, 6] | ΔTm at 10 µM [1, 7] | SMILES | other results
23 | -0.09 °C | 76.8 ± 9.4% | 49.5 ± 4.6% |  |  | CN(c1ncccc1CNc1nc(Nc2ccc3c(c2)CC(=O)N3)ncc1C(F)(F)F)S(C)(=O)=O [PF-00562271] | 
24 | 0.15 °C | 71.7 ± 7.8% | 49.8 ± 4.1% |  |  | CC(C)(C)c1cnc(CSc2cnc(NC(=O)C3CCNCC3)s2)o1 [SNS-032] | 
25 |  |  |  | 1.1 °C |  | Fc1ccc(-c2ncn(C3CCNCC3)c2-c2ccnc(Oc3ccc4c(c3)OCO4)n2)cc1 [SB-250715] | 
26 |  |  |  | 1.12 °C | -0.3 ± 0.3 °C | CCCN1CCC(c2ccc(Nc3nc(Nc4cc(F)ccc4C(N)=O)c4cc[nH]c4n3)c(OC)c2)CC1 [GSK1326255A] | 
27 | 0.3 ± 0.2 °C | 46.6 ± 2.2% | 36.9 ± 0.7% |  |  | Cc1cnc(Nc2ccc(N3CCN(C)CC3)cc2)nc1Nc1cccc(S(=O)(=O)NC(C)(C)C)c1 [TG101209] | IC50 [2]: 1.54 ± 0.214 µM
28 | 0.51 °C | 88.2 ± 10.3% | 60.1 ± 16.9% |  |  | NC(=O)c1cnc(N[C@@H]2CCCC[C@@H]2N)nc1Nc1cccc(-n2nccn2)c1 [PRT062607] | 
29 | -3.92 ± 0.3 °C | 67.8 ± 10.6% | 45.5 ± 4.2% |  |  | Oc1ccc2ccccc2c1SSc1c(O)ccc2ccccc12 [IPA-3] | 
30 |  |  |  | 2.55 °C | 2.5 ± 0.2 °C | COc1cccc(-c2c[nH]c3c(N/N=C/c4ccncc4)ncnc23)c1 [GW814408X] | 
31 | 0.2 ± 0.1 °C | 23.1 ± 0.1% | 17 ± 0.1% |  |  | Nc1nc(Nc2ccc(S(N)(=O)=O)cc2)nn1C(=O)c1c(F)cccc1F [JNJ-7706621] | 
32 |  |  |  | 1.04 °C | 0.8 ± 0.4 °C | CS(=O)(=O)CCNCc1ccc(-c2ccc3ncnc(Nc4ccc(OCc5ccccc5)c(Br)c4)c3c2)o1 [GW580496A] | 
33 | -0.1 ± 0.2 °C | 50.8 ± 4.5% | 36.2 ± 6.3% |  |  | COc1cc2ncnc(Nc3ccc(O)c(Br)c3)c2cc1OC [WHI-P154] | IC50 [2]: 0.54 ± 0.129 µM
34 |  |  |  | 1.04 °C | 1.1 ± 0.2 °C | NS(=O)(=O)c1ccc(N/N=C2\C(=O)Nc3ccc4ncccc4c32)cc1 [GW305178X] | 
35 | 0.6 ± 0.2 °C | 54.2 ± 6.4% | 28.1 ± 5.5% |  |  | Nc1cccc(-c2cc3c(Oc4cccc(O)c4)ncnc3[nH]2)c1 [TWS119] | IC50 [2]: 0.601 ± 0.029 µM; Kd [4]: 1.93 ± 0.182 µM
36 |  | 56.8 ± 2.8% | 31.3 ± 0.1% | 1.45 °C | 0.1 ± 0.3 °C | CCn1cc(-c2ccnc3[nH]c(-c4cccc(CN(C)C)c4)cc23)c(-c2ccc(NC(=O)N(C)C)cc2)n1 [GSK1070916] | IC50, cell-based NanoBRET assay ([2]; HEK293T): did not produce a BRET signal
37 |  | 28.8 ± 2.4% | 19.6 ± 5.7% | 1.67 °C | 1.7 ± 0.4 °C | O=C(c1ccc(Nc2nccc(-c3cc4ccccc4s3)n2)cc1)N1CCC(N2CCCC2)CC1 [IKK-16] | IC50 [2]: 0.116 ± 0.026 µM; Kd [4]: 1.85 ± 0.915 µM
38 |  | 40.9% | 26.8 ± 0.5% | 2.11 °C | 2.5 ± 0.3 °C | CNC(=O)c1nn(C)c2c1C(C)(C)Cc1cnc(Nc3ccc(N4CCN(C)CC4)cc3)nc1-2 [Milciclib] | IC50 [2]: 0.027 ± 0.005 µM; Kd [4]: 0.245 ± 0.06 µM
39 |  |  |  | 1.96 °C | 1.2 ± 0.6 °C | COc1ccc(Cl)c(Nc2nc3ccccc3nc2NS(=O)(=O)c2cccc(NC(=O)C(C)(C)N)c2)c1 [XL147] | 

Reference: paper PMC7663056, “Crystal Structure and Inhibitor Identifications Reveal Targeting Opportunity for the Atypical MAPK Kinase ERK3” (International Journal of Molecular Sciences, 2020)
